Laboratory results: patent US11716992B2, “5A5B6C tricyclic spirolactone derivative, preparation method therefor and use thereof” (NANKAI UNIVERSITY, priority 2017, dated 2023)
Where “and” joins values, the source holds several entries; their conditions need not be identical. Equal values may be shown once. Read-outs that look alike come from different tables or passages of the source.

Key:
Cercospora arachidicola = test: Fungicidal activity, fungicide growth rate method, CA; format: cell-based; conditions: Mycosphaerella arachidis, 50 μg/mL; read-out: fungicidal activity (growth inhibition rate), CA
Physalospora piricola = test: Fungicidal activity, fungicide growth rate method, PP; format: cell-based; conditions: 50 μg/mL; read-out: fungicidal activity (growth inhibition rate), PP
[1] = tested on: Helicoverpa armigera (Hübner); test: Insecticidal activity against Helicoverpa armigera (Hübner); format: in vivo; conditions: Helicoverpa armigera; 100 μg/mL; read-out: insecticidal activity, Helicoverpa armigera (Hübner)
Pellicularia sasakii = test: Fungicidal activity, fungicide growth rate method, PS; format: cell-based; conditions: 50 μg/mL; read-out: fungicidal activity (growth inhibition rate), PS
Ostrinia furnacalis = test: Insecticidal activity against Ostrinia furnacalis; format: in vivo; conditions: Ostrinia furnacalis; 100 μg/mL; read-out: insecticidal activity, Ostrinia furnacalis
[2] = tested on: Apis mellifera ligustica Spin; conditions: for Death number after 24 h / Death number after 48 h: per replicate of 10 bees
[3] = tested on: Phytophthora infestans (Mont.) de Bary; test: microbe, parasite or virus in culture; format: cell-based; conditions: Phytophthora infestans, read-out: fungicidal activity (growth inhibition rate), PI, 50 μg/mL
Alternaria solani = test: Fungicidal activity, fungicide growth rate method, AS; format: cell-based; conditions: Alternaria solani, 50 μg/mL; read-out: fungicidal activity (growth inhibition rate), AS
[4] = tested on: Mythimna separate (Walker); test: Insecticidal activity against Mythimna separate (Walker); format: in vivo; conditions: Mythimna, 100 μg/mL; read-out: insecticidal activity, Mythimna separate (Walker)
Sclerotinia sclerotiorum = test: Fungicidal activity, fungicide growth rate method, SS; format: cell-based; conditions: Sclerotinia sclerotiorum, 50 μg/mL
Tobacco Mosaic Virus = test: Anti-TMV inactivation activity on tobacco plants; format: in vivo; design: concentration or dose not given beside the values; conditions: compound mixed with TMV solution 30 minutes, lesions checked three days later
Botrytis cinerea = test: Fungicidal activity, fungicide growth rate method, BC; format: cell-based; conditions: Botrytis cinerea, 50 μg/mL; read-out: fungicidal activity (growth inhibition rate), BC
Rhizoctonia cerealis = test: Fungicidal activity, fungicide growth rate method, RC; format: cell-based; conditions: Ceratobasidium cereale, 50 μg/mL; read-out: fungicidal activity (growth inhibition rate), RC
Caenorhabditis elegans = test: Insecticidal activity against Caenorhabditis elegans; format: in vivo; conditions: Caenorhabditis elegans, 100 μg/mL; read-out: insecticidal activity, Caenorhabditis elegans
wheat Gibberella zeae = test: microbe, parasite or virus in culture; format: cell-based; conditions: Fusarium graminearum, read-out: fungicidal activity (growth inhibition rate), GZ, 50 μg/mL

| Structure (SMILES) | inhibition at 50 µg/mL (Cercospora arachidicola) | inhibition at 50 µg/mL (Physalospora piricola) | pest or weed control at 100 µg/mL [1] | inhibition at 50 µg/mL (Pellicularia sasakii) | pest or weed control at 100 µg/mL (Ostrinia furnacalis) | inhibition at 50 µg/mL [3] | inhibition at 50 µg/mL (Alternaria solani) | pest or weed control at 100 µg/mL [4] | inhibition at 50 µg/mL (Sclerotinia sclerotiorum) | TMV inactivation (anti-TMV activity) (Tobacco Mosaic Virus) | inhibition at 50 µg/mL (Botrytis cinerea) | inhibition at 50 µg/mL (Rhizoctonia cerealis) | pest or weed control at 100 µg/mL (Caenorhabditis elegans) | inhibition at 50 µg/mL (wheat Gibberella zeae) | melting point | further results |
| --- | --- | --- | --- | --- | --- | --- | --- | --- | --- | --- | --- | --- | --- | --- | --- | --- |
| CCOC(=O)C(C(=O)OCC)C1CC(=O)[C@@]2(O)CC=CC[C@H]12 (some centres unmarked) [Zyj06-113-2] | 24% | 26% | 5% | 25% | 15% | 40% | 3% | 20% | 36% | 28% | > 50% | 0% | 7% | 0% |  | Death rate after 48 h (%) ([2]; dosage 9.69 μg a.i./bee): 10.0%; Death number after 24 h ([2]; dosage 9.69 μg a.i./bee): 0; Death number after 48 h ([2]; dosage 9.69 μg a.i./bee): 0 and 2; Death rate after 48 h (%) ([2]; dosage 12.6 μg a.i./bee): 15.0%; Death number after 24 h ([2]; dosage 12.6 μg a.i./bee): 0; Death number after 48 h ([2]; dosage 12.6 μg a.i./bee): 1 and 2 |
| C=CC[C@@H]1C[C@@]2(OC(C)=O)C[C@@H](CC=C)[C@H]3C[C@@H]4O[C@@H]4C[C@@]32O1 [Zyj07-67-2] | 24% | 13% | 0% | 36% | 0% | 25% | 0% | 0% | > 50% | 29% | > 50% | 29% | 20% | 0% | 100 to 102 °C |  |
| C=CC[C@@H]1C[C@]2(O)CCO[C@@]23C[C@@H](O)[C@H](Cl)C[C@H]13 [Zyj07-101] | 14% | > 50% | 20% | 0% | 15% | > 60% | 5% | > 30% |  |  | > 50% | 29% |  | 3% | 143 to 144 °C |  |
| C=CC[C@@H]1C[C@]2(O)C(C(=O)OCC)C(=O)O[C@@]23CC=CC[C@H]13 (some centres unmarked) [Zyj06-180] | 30% | 15% | 5% | 45% | 0% | 19% | 14% | 20% | > 50% | 5% | > 50% | 0% | 22% | 20% |  | Death rate after 48 h (%) ([2]; dosage 10.6 μg a.i./bee): 5.0%; Death number after 24 h ([2]; dosage 10.6 μg a.i./bee): 1 and 0; Death number after 48 h ([2]; dosage 10.6 μg a.i./bee): 1 and 0 |
| O=C1C[C@@]2(O)CC[C@H]3C[C@@H]4O[C@@H]4C[C@@]32O1 [Zyj07-102] | 14% | 42% | 0% | 0% | 0% | 23% | 0% | 0% | 0% | 14% | 41% | 0% |  | 27% | 119 to 120 °C |  |
| C=CC[C@@H]1C[C@]2(O)CCO[C@@]23C[C@@H](Cl)[C@H](O)C[C@H]13 [Zyj07-100] | 46% | 29% | 0% | 23% | 0% | 38% | 14% | 10% |  |  | 14% | 0% |  | 13% | 134 to 136 °C |  |
| C=CC[C@@H]1C[C@]2(OC(C)=O)C[C@H](OC(C)=O)O[C@@]23C[C@H]2O[C@H]2C[C@H]13 [Zyj07-65-2] | 24% | 12% | 10% | 0% | 5% | 25% | 0% | > 30% | 24% | 29% | 41% | 7% | 17% | 0% |  | Death rate after 48 h (%) ([2]; dosage 9.57 μg a.i./bee): 5.0%; Death number after 24 h ([2]; dosage 9.57 μg a.i./bee): 0; Death number after 48 h ([2]; dosage 9.57 μg a.i./bee): 0 and 1; Death rate after 48 h (%) ([2]; dosage 10.9 μg a.i./bee): 0%; Death number after 24 h ([2]; dosage 10.9 μg a.i./bee): 0; Death number after 48 h ([2]; dosage 10.9 μg a.i./bee): 0 |
